Measurements: patent US4206217A, “3-[4-(1,3-Diazacycloalken-2-yl)-phenyl]-1,2-benzisothiazoles, their manufacture, and drugs containing these compounds” (BASF Aktiengesellschaft, priority 1977, dated 1980)
Counter-ions that a name gives are not always drawn.

Legend:
[1] = tested on: aconitine-induced arrhythmia; experiment: animal or person; format: in vivo, rat (Sprague Dawley); conditions: for ED50: Rattus norvegicus, po, read-out: Antiarrhythmic effect: effective dose ED 50%; for Maximum effect: Δ% (increase in duration of aconitine infusion): effect of the maximum nontoxic dose (215 for Examples 2 and 3; 681 for procainamide); for Maximum effect: Δ% (increase in duration of aconitine infusion) / Antiarrhythmic effect: R.E. (relative effect) / Maximum effect: R.M.E. (relative maximum effectiveness) / Effect at the maximum dose, higher than that of procainamide / Antiarrhythmic activity greater than that of procainamide: rat, oral; for Antiarrhythmic effect: R.E. (relative effect) / Maximum effect: R.M.E. (relative maximum effectiveness): procainamide = 1.00; for Antiarrhythmic effect: R.E. (relative effect): effective dose; for Effect at the maximum dose, higher than that of procainamide / Antiarrhythmic activity greater than that of procainamide: versus procainamide
Procedure: The antiarrhythmic activity of the compounds was determined by orally administering these to rats (Sprague Dawley, weight: 180-240 g) 45 minutes before the start of narcosis (100 mg/kg of thiobutabarbital, administered intraperitoneally).
The arrhythmogenous substance used was aconitine, administered by intravenous infusion (at the rate of 0.005 mg/kg.minute) 60 minutes after administration of the compound of the invention.
For a quantitative evaluation of the linear relation between the logarithm of the dose (mg/kg) of the test substances and the relative increase in the duration of infusion of aconitine (Δ%), the dose which increases the duration of infusion by 50% (ED 50%) was determined.

in vivo = conditions: mouse, in vivo; for LD50 at 168 h: ip
Procedure: (§1) The acute toxicity was determined on groups of 10 or 20 female Swiss mice weighing 20-26 g, using intraperitoneal administration. The LD 50 was calculated (Probit analysis) as the dose following which 50% of the animals died within 7 days.

isolated auricle = experiment: Stimulation time/tension relationship (isolated auricle)
From the text: In test models used in respect of the antiarrhythmic effect, the following findings were obtained: Stimulation time/tension relationship (isolated auricle): […]

female Swiss mice = experiment: in vivo; conditions: versus procainamide
Procedure: as §1

[2] = tested on: ventricular fibrillation threshold; experiment: Ventricular fibrillation threshold in guinea pigs; format: in vivo, guinea pig; conditions: intravenous administration
From the text: Ventricular fibrillation threshold in guinea pigs:

Row | Compound | ED50 [1] | Maximum effect: Δ% (increase in duration of aconitine infusion) [1] | LD50 at 168 h (in vivo) | Antiarrhythmic effect: R.E. (relative effect) [1] | Maximum effect: R.M.E. (relative maximum effectiveness) [1] | Effect at the maximum dose, higher than that of procainamide [1] | Antiarrhythmic activity greater than that of procainamide [1] | Stimulation time/tension relationship, effect relative to quinidine (isolated auricle) | Therapeutic range (LD 50 / ED 50%) greater than for procainamide (female Swiss mice) | selectivity ratio (in vivo) | Ventricular fibrillation threshold, effect relative to quinidine [2]
1 | CCN(CC)CCNC(=O)c1ccc(N)cc1 [Procainamide, procainamide, reference compound] | 157 mg/kg | 135% | 227 mg/kg | – | – | – | – | – | – | – | –
2 | c1ccc2c(-c3ccc(C4=NCCCN4)cc3)nsc2c1 [Example 2, 3-[4-(Tetrahydropyrimidin-2-yl)-phenyl]-1,2-benzisothiazole hydrochloride] | 31.2 mg/kg | 289% | 126 mg/kg | 5.03 | 2.14 | 114% | about 5 times | 1.24 times the effect of quinidine | 4 times | 4.03 | 1.8 times the effect of quinidine
3 | CC1CN=C(c2ccc(-c3nsc4ccccc34)cc2)N1 (stereo not drawn) [Example 3, 3-[4-(Methylimidazolin-2-yl)-phenyl]-1,2-benzisothiazole hydrochloride] | 32.7 mg/kg | 233% | 90.5 mg/kg | 4.80 | 1.73 | 73% | about 5 times | 1.5 times the effect of quinidine | 2.8 times | 2.76 | –
